From PMC8041284, “Tunable Methacrylamides for Covalent Ligand Directed Release Chemistry” (Journal of the American Chemical Society, 2021)
Like-named read-outs stand apart in the source and are kept apart here.

Biological target: BTK (Homo sapiens, UniProt Q06187)
Test: biochemical
[1] = read-out: BTK inhibition (%), 0.75 uM BTK, […] probe 3l, 15 min preincubation

Sequence of BTK (Q06187 402-655 limits assumed): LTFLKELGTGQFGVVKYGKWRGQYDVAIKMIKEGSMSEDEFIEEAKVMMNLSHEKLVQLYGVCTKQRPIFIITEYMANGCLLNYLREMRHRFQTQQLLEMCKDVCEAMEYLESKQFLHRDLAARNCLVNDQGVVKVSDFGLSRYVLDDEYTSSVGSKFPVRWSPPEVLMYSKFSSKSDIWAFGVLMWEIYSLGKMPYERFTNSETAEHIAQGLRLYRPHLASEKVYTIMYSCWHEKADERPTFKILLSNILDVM

Row | Compound | inhibition at 10 µM [1] [%] | inhibition at 10 µM (read-out: BTK inhibition (%)) [%]
1 | OCCn1cc(-c2cnc3nnn(Cc4ccc5ncccc5c4)c3n2)cn1 [PCM-0095071] | 0 | 
2 | CC(C)c1cnn2c(NCc3ccccc3)cc(NCCCCCCN)nc12 [PCM-0095134] | -25.5 | 
3 | O=C(O)c1ccccc1O [PCM-0090179] | -16.3 | 
4 | CC(C)C(=O)OCC(=O)[C@@]12O[C@H](C3CCCCC3)O[C@@H]1C[C@H]1[C@@H]3CCC4=CC(=O)C=C[C@]4(C)[C@H]3[C@@H](O)C[C@@]12C [PCM-0214834] | -6.9 | 
5 | Cc1cnc(-c2cc(N3CCN(C(=O)CCS(C)(=O)=O)CC3)ncc2Cl)c(C)c1 [PCM-0095343] | 7.8 | 
6 | O=c1c(O)c(-c2ccc(O)c(O)c2)oc2cc(O)ccc12 [PCM-0094846] | 46.7 | 
7 | CNC[C@H](O)[C@@H](O)[C@H](O)[C@H](O)CO [PCM-0086373] | -10.1 | 
8 | O=C(Nc1ccc(OC(F)(F)F)cc1)c1sccc1NCc1ccnc2ccccc12 [PCM-0094951] | 90.3 | 
9 | CN(C)CCOc1ccc(-c2nc(-c3ccc4c(c3)CCC4=NO)c(-c3ccncc3)[nH]2)cc1 [PCM-0095262] | -2.1 | 
10 | CCCCC[C@H](O)/C=C/[C@H]1[C@H](O)CC(=O)[C@@H]1CCCCCCC(=O)O [PCM-0086285] | 6.9 | 
11 | CCOC(=O)C1=C(COCCN)NC(C)=C(C(=O)OC)[C@@H]1c1ccccc1Cl [PCM-0214889] | -11.7 | 
12 | CC(=O)O/N=C1\C(=O)N(Cc2cc(Cl)ccc2Cl)c2ccc(Cl)cc21 [PCM-0095733] | 28.6 | 
13 | CC(C)c1onc(-c2c(Cl)cccc2Cl)c1COc1ccc(/C=C/c2cccc(C(=O)O)c2)c(Cl)c1 [PCM-0095360] | 52.4 | 
14 | C[C@@H]1O[C@@H](O[C@H]2[C@H](O[C@H]3C[C@]4(C)[C@H](C[C@@H](O)[C@@H]5[C@@H]([C@]6(C)CC[C@H](C(C)(C)O)O6)CC[C@]54C)[C@@]4(C)CC[C@H](O)C(C)(C)[C@H]34)O[C@H](CO)[C@@H](O)[C@@H]2O)[C@H](O)[C@H](O)[C@H]1O [PCM-0216458] | 1.5 | 
15 | OC[C@H]1NC[C@H](O)[C@@H](O)[C@@H]1O [PCM-0214950] | -9.3 | 
16 | COc1c(N2CCNC(C)C2)c(F)cc2c(=O)c(C(=O)O)cn(C3CC3)c12 (centres unmarked) [PCM-0086315] | -40.5 | 
17 | O=C1CCC[C@@H]2[C@H]3CCC[N@+]4([O-])CCC[C@@H](CN12)[C@@H]34 [PCM-0094874] | -8.6 | 
18 | CCOC(=O)[C@H](CCc1ccccc1)N[C@@H](C)C(=O)N1CCC[C@H]1C(=O)O [PCM-0085929] | 5.4 | 
19 | Cc1ccc2oc(=O)ccc2c1 [PCM-0215023] | -3.9 | 
20 | Oc1cc2c(cc1O)[C@@H]1c3ccc(O)c(O)c3OC[C@]1(O)C2 [PCM-0094861] | -15.6 | 
21 | COc1ccc(/C=C\c2cc(OC)c(OC)c(OC)c2)cc1OP(=O)(O)O [PCM-0215231] | -27.2 | 
22 | CCc1nc(N)nc(N)c1-c1ccc(Cl)cc1 [PCM-0085830] | -13.2 | 

Row | Compound | inhibition at 10 µM [1] [%] | inhibition at 10 µM (read-out: BTK inhibition (%)) [%]
23 | NC(=O)c1ccc[n+]([O-])c1 [PCM-0215057] | 5.4 | 
24 | O=c1c(-c2ccc(O)cc2)coc2cc(O)ccc12 [PCM-0065064] | -7.8 | 
25 | C=C1/C(=C\C=C2/CCC[C@]3(C)[C@@H]([C@H](C)/C=C/[C@H](C)C(C)C)CC[C@@H]23)C[C@@H](O)C[C@@H]1O [PCM-0214626] | 4.1 | 
26 | Cc1ncc([N+](=O)[O-])n1CC(C)O (centres unmarked) [PCM-0086479] | -3.9 | 
27 | COc1cc(C(=O)NC2CCCNC2)cc(OC)c1OC (centres unmarked) [PCM-0214753] | -3.1 | 
28 | CCCCc1nc2cc(/C=C/C(=O)NO)ccc2n1CCN(CC)CC [PCM-0095187] | 9.7 | 
29 | COc1cc2nc(N3CCN(C(=O)C4COc5ccccc5O4)CC3)nc(N)c2cc1OC (centres unmarked) [PCM-0065300] | -11.7 | 
30 | CNC(=O)CN1CCC(Oc2cc3c(Nc4cccc(Cl)c4F)ncnc3cc2OC)CC1 [PCM-0095236] | 23.4 | 
31 | COc1cc2nccc(Oc3ccc(NC(=O)NC4CC4)c(Cl)c3)c2cc1C(N)=O [PCM-0095014] | 36.6 | 
32 | CC(C)Cn1cnc2c(N)nc3ccccc3c21 [PCM-0086321] | -2.6 | 
33 | CCOC(=O)c1[nH]c2cc(Cl)ccc2c1C(C(=O)NC(C)(C)C)N(C=O)Cc1ccc(Cl)cc1 (centres unmarked) [PCM-0095744] | 13.1 | 
34 | NC(=NCCCCCCN=C(N)/N=C(\N)Nc1ccc(Cl)cc1)/N=C(\N)Nc1ccc(Cl)cc1 [PCM-0085888] | 3.1 | 
35 | C[C@]12CCC(=O)C=C1[C@@H]1C[C@@H]1[C@H]1[C@@H]3[C@@H]4C[C@@H]4[C@@]4(CCC(=O)O4)[C@@]3(C)CC[C@@H]12 [PCM-0214617] | -15.6 | 
36 | COc1cccc(-c2cc(=O)c3ccccc3o2)c1N [PCM-0065604] | 4.8 | 
37 | Cn1c(COP(=O)(NCCBr)NCCBr)cnc1[N+](=O)[O-] [PCM-0214844] |  | -4.7
38 | CO/N=C(\C(=O)N[C@@H]1C(=O)N2C(C(=O)OCOC(=O)C(C)(C)C)=C(/C=C\c3scnc3C)CS[C@H]12)c1csc(N)n1 [PCM-0214651] | 28 | 
39 | O=c1c(O)c(-c2ccc(O)cc2O)oc2cc(O)cc(O)c12 [PCM-0065541] | 10.1 | 
40 | N=C1CCCN1Cc1[nH]c(=O)[nH]c(=O)c1Cl [PCM-0214897] | -10.1 | 
41 | N=C(N=C(N)N)N1CCOCC1 [PCM-0085762] | -3.1 | 
42 | CN1CCCC(n2nc(Cc3ccc(Cl)cc3)c3ccccc3c2=O)CC1 (centres unmarked) [PCM-0086017] | 5.5 | 
43 | Cc1ccc(C(=O)N(CCCN)[C@@H](c2nc3cc(Cl)ccc3c(=O)n2Cc2ccccc2)C(C)C)cc1 [PCM-0095123] | 11.7 | 
44 | C=C1/C(=C\C=C2/CCC[C@]3(C)[C@@H]([C@H](C)/C=C/[C@@H](O)C4CC4)CC[C@@H]23)C[C@@H](O)C[C@@H]1O [PCM-0214926] | 1.6 | 

Now from value to compound, other results behind:

Row | inhibition at 10 µM [1] [%] | Compound | inhibition at 10 µM (read-out: BTK inhibition (%)) [%]
45 | -11.6 | CC(C)n1c([C@H](C)Nc2ncnc(N)c2C#N)cc2cccc(-c3ccc(=O)n(C)c3)c2c1=O [PCM-0215961] | 
46 | 8.5 | CN[C@@H]1[C@@H](O[C@H]2O[C@H](CO)[C@@H](N)[C@H](O)[C@H]2O)O[C@H]2C[C@@H](N)[C@@H](O[C@H]3[C@H](O)[C@@H](O)[C@H](N)C[C@@H]3N)O[C@@H]2[C@@H]1O [PCM-0215222] | 
47 | -3.1 | O=C(O)/C=C/c1cccc(O)c1 [PCM-0216210] | 
48 | 10.8 | CO/N=C(\C(=O)N[C@@H]1C(=O)N2C(C(=O)[O-])=C(C[n+]3ccn4ncccc43)CS[C@H]12)c1nsc(N)n1 [PCM-0216591] | 
49 | 20.8 | COc1ccc(Oc2cc(C)c(-c3csc(NC(=O)c4ccncc4)n3)c(C)c2)cc1 [PCM-0215413] | 
50 | -20.8 | CC(O)c1cc(C(=O)N[C@@H](C)Cn2ccc(-c3ccc(C#N)c(Cl)c3)n2)n[nH]1 (some centres unmarked) [PCM-0215540] | 
51 | -14.7 | CCC(CC)(NC(=O)C(C)C)C(=O)N[C@@H](CCCN=C(N)N)C(=O)NC1(C(=O)NC(c2ccc(F)cc2)c2ccc(F)cc2)CCCC1 [PCM-0215267] | 
52 | -20.1 | CCOC(=O)c1c2c3c(cccc3[nH]c1=O)C(=O)c1ccccc1-2 [PCM-0215657] | 
53 | -6.9 | CC(=O)c1ccc(C)cc1O [PCM-0215921] | 
54 | -25.5 | C[C@@H]1O[C@@H](O[C@H]2[C@H](O[C@H]3CC[C@@]4(C)[C@@H](CC[C@]5(C)[C@@H]4CC=C4[C@@H]6CC(C)(C)CC[C@]6(C(=O)O[C@@H]6O[C@H](CO[C@@H]7O[C@H](CO)[C@@H](O)[C@H](O)[C@H]7O)[C@@H](O)[C@H](O)[C@H]6O)CC[C@]45C)[C@]3(C)CO)OC[C@H](O)[C@@H]2O)[C@H](O)[C@H](O)[C@H]1O [PCM-0216342] | 
55 | 32.4 | COc1cc(C)c2c(=O)c(-c3ccccc3)coc2c1 [PCM-0216420] | 
56 | 14.7 | CCOC(=O)[C@H]1O[C@@H]1C(=O)N[C@@H](CC(C)C)C(=O)NCCC(C)C [PCM-0215286] | 
57 | -0.8 | CC[C@@H](C)Nc1cc(C(=O)NC2C[C@H]3CC[C@@H](C2)N3c2ccc(C(=O)C3CC3)cn2)c(C)cc1C(N)=O (some centres unmarked) [PCM-0215196] | 
58 | 12.4 | C=C(C)[C@@H]1CCC2=CC(=O)C[C@@H](C)[C@]2(C)C1 [PCM-0216368] | 
59 | 4.6 | Clc1cccc(CN=C2Nc3ccccc3NC23CCNCC3)c1 [PCM-0215457] | 
60 | -2.6 | CC(O)[C@H](C)[C@H](N)C(=O)O (some centres unmarked) [PCM-0216361] | 
61 | 0.8 | O=C(Nc1cc2cc[nH]c2cn1)c1ccccc1 [PCM-0215233] | 
62 | -18.5 | Cc1nc2ccc(NC(=O)Nc3ccnc4cccnc34)cc2o1 [PCM-0215431] | 
63 | -4.1 | CCOC(=O)c1cnc2ccc(-c3cncc(NS(=O)(=O)c4ccccc4)c3)cn12 [PCM-0215311] | 
64 | -8.5 | NC(N)=NCCCC[C@H](N)C(=O)O [PCM-0216161] | 
65 | 2.3 | O=C1C2=C(CCN(Cc3ccccc3)C2)N2CCN=C2N1Cc1ccc(C(F)(F)F)cc1 [PCM-0215923] | 
66 | 20.7 | CSCC1CN(/N=C/c2ccc([N+](=O)[O-])o2)C(=O)O1 (centres unmarked) [PCM-0216228] | 
67 | 91 | C=CC(=O)N1CC[C@@H](Oc2nc(Nc3ccc(N4CCC(N5CCN(C)CC5)CC4)cc3)c(C(N)=O)nc2CC)C1 [PCM-0215788] | 
68 | -79.5 | COC(=O)[C@H](CC(C)C)NC(=O)c1ccc(NC[C@@H](N)CS)cc1-c1cccc2ccccc12 [PCM-0215717] | 
69 | 7.7 | N#Cc1ccc(COC[C@H]2O[C@@H](n3c(NCc4ccc(Cl)c(Cl)c4)nc4c(N)ncnc43)[C@H](O)[C@@H]2O)cc1 [PCM-0215474] | 
70 | 3.1 | Cc1cc(O)cc(O)c1 [PCM-0216278] | 
71 | 8.5 | CC1=CCC2C(C1)C2(C)C (centres unmarked) [PCM-0216215] | 
72 | -24.1 | CCc1ccc(C(=O)C(C)CN2CCCCC2)cc1 (centres unmarked) [PCM-0215109] | 
73 | -11.6 | CC1(C)S[C@@H]2[C@H](NC(=O)[C@H](N)c3ccccc3)C(=O)N2[C@H]1C(=O)OCOC(=O)[C@@H]1N2C(=O)C[C@H]2S(=O)(=O)C1(C)C [PCM-0216243] | 
74 | 21.6 | OC[C@H]1O[C@@](CO)(OC[C@@]2(O[C@H]3O[C@H](CO)[C@@H](O)[C@H](O)[C@H]3O)O[C@H](CO)[C@@H](O)[C@@H]2O)[C@@H](O)[C@@H]1O [PCM-0216401] | 
